≈ marks a conversion by molar mass, not a printed value.
Assays:
Escherichia coli = test: Antibacterial activity against Escherichia coli MTCC 443 after 12 hrs by microplate reader assay; assay type: functional; details: MTCC 443, 12 h
THP-1 = test: Cytotoxicity against human THP1 cells after 48 hrs by MTT assay; assay type: cell-based; details: THP-1, 48 h
[1] = tested on: Mycobacterium tuberculosis; test: Antimycobacterial activity against Mycobacterium tuberculosis H37Rv after 14 days by inverted microscopic analysis; assay type: functional; details: 336 h
A549 [2] = test: Cytotoxicity against human A549 cells after 48 hrs by MTT assay; assay type: cell-based; details: A549, 48 h
[3] = Therapeutic index, ratio of MHC50 for sheep RBC to MIC99 for Mycobacterium tuberculosis H37Rv; details: sheep red blood cells, read-out: TI
Staphylococcus aureus = test: Antibacterial activity against Staphylococcus aureus MTCC 737 after 12 hrs by microplate reader assay; assay type: functional; details: MTCC 737, 12 h
[4] = tested on: Mycolicibacterium smegmatis; test: Antimycobacterial activity against Mycobacterium smegmatis str. MC2 155 after 2 days by inverted microscopic analysis; assay type: functional; details: str. MC2 155, 48 h
[5] = Therapeutic index, ratio of MHC50 for chicken RBC to MIC99 for Mycobacterium tuberculosis H37Rv; details: chicken red blood cells, read-out: TI
A549 [6] = test: Cytotoxicity against human A549 cells assessed as effect on cell cycle phase at 100 uM by propidium iodide staining-based flow cytometry; details: a549, 100 µM

Compound | MIC99 (Escherichia coli) [µM] | IC50 (THP-1) [µM] | MIC99 [1] [µM] | IC50 (A549 [2]) [µM] | selectivity ratio [3] | MIC99 (Staphylococcus aureus) [µM] | MIC99 [4] [µM] | selectivity ratio [5] | Activity (A549 [6])
COC(=O)CC[C@@H](C)[C@H]1CC[C@H]2[C@@H]3[C@H](OC(=O)C[N+]4(C)CCCCC4)C[C@@H]4C[C@H](OC(=O)C[N+]5(C)CCCCC5)CC[C@]4(C)[C@H]3C[C@H](OC(=O)C[N+]3(C)CCCCC3)[C@]12C.[Cl-].[Cl-].[Cl-] | > 512 | > 200 | 25 | > 200 | > 40 | 512 | 6.25 | > 40 | Non-toxic
COC(=O)CC[C@@H](C)[C@H]1CC[C@H]2[C@@H]3CC[C@@H]4C[C@H](OC(=O)C[N+](C)(C)C)CC[C@]4(C)[C@H]3C[C@H](OC(=O)C[N+](C)(C)C)[C@]12C | 256 | 105 | > 50 | 157 | < 20 | 256 | 12.5 | < 20 | 
COC(=O)CC[C@@H](C)[C@H]1CC[C@H]2[C@@H]3[C@H](OC(=O)C[N+]4(C)CCCCC4)C[C@@H]4C[C@H](OC(=O)C[N+]5(C)CCCCC5)CC[C@]4(C)[C@H]3CC[C@]12C | 128 | 164 | 12.5 | 79 | > 80 | 256 | 1.56 | > 80 | 
COC(=O)CC[C@@H](C)[C@H]1CC[C@H]2[C@@H]3CC[C@@H]4C[C@H](OC(=O)C[N+]5(C)CCCCC5)CC[C@]4(C)[C@H]3CC[C@]12C | > 512 | 77 | 50 | 42 | > 20 | > 512 | 6.25 | > 20 | 
C[C@H](CCC(=O)O)[C@H]1CC[C@H]2[C@@H]3[C@H](O)C[C@@H]4C[C@H](O)CC[C@]4(C)[C@H]3C[C@H](O)[C@]12C [CHOLIC ACID] |  |  |  |  |  |  |  |  | Non-toxic
COC(=O)CC[C@@H](C)[C@H]1CC[C@H]2[C@@H]3[C@H](OC(=O)C[N+](C)(C)C)C[C@@H]4C[C@H](OC(=O)C[N+](C)(C)C)CC[C@]4(C)[C@H]3C[C@H](OC(=O)C[N+](C)(C)C)[C@]12C.[Cl-].[Cl-].[Cl-] | > 512 | 80 | 50 | > 200 | > 20 | > 512 | 12.5 | > 20 | Non-toxic
NNC(=O)c1ccncc1 [ISONIAZID] |  |  | 0.78 (≈ 0.107 µg/mL) |  |  |  | > 50 |  | 
C[C@H]1COc2c(N3CCN(C)CC3)c(F)cc3c(=O)c(C(=O)O)cn1c23 [LEVOFLOXACIN] |  |  | 0.78 (≈ 0.282 µg/mL) |  |  |  | 0.58 (≈ 0.21 µg/mL) |  | 
COC(=O)CC[C@@H](C)[C@H]1CC[C@H]2[C@@H]3[C@H](OC(=O)C[n+]4ccccc4)C[C@@H]4C[C@H](OC(=O)C[n+]5ccccc5)CC[C@]4(C)[C@H]3CC[C@]12C | 128 | > 200 | 25 | 168 | > 40 | 256 | 3.12 | > 40 | 
COC(=O)CC[C@@H](C)[C@H]1CC[C@H]2[C@@H]3CC[C@@H]4C[C@H](OC(=O)C[n+]5ccccc5)CC[C@]4(C)[C@H]3C[C@H](OC(=O)C[n+]3ccccc3)[C@]12C | 128 | 124 | 12.5 | 78 | > 80 | > 512 | 1.56 | > 80 | 
COC(=O)CC[C@@H](C)[C@H]1CC[C@H]2[C@@H]3[C@H](OC(=O)C[N+](C)(C)C)C[C@@H]4C[C@H](OC(=O)C[N+](C)(C)C)CC[C@]4(C)[C@H]3CC[C@]12C | 256 | 142 | 12.5 | 144 | > 80 | 512 | 3.12 | > 80 | 
COC(=O)CC[C@@H](C)[C@H]1CC[C@H]2[C@@H]3CC[C@@H]4C[C@H](OC(=O)C[n+]5ccc(N(C)C)cc5)CC[C@]4(C)[C@H]3CC[C@]12C | > 512 | 86 | 50 | 112 | > 20 | > 512 | 12.5 | > 20 | 
COC(=O)CC[C@@H](C)[C@H]1CC[C@H]2[C@@H]3CC[C@@H]4C[C@H](OC(=O)C[n+]5ccccc5)CC[C@]4(C)[C@H]3CC[C@]12C | > 512 | 89 | > 50 | 68 | < 20 | > 512 | 25 | < 20 | 
COC(=O)CC[C@@H](C)[C@H]1CC[C@H]2[C@@H]3CC[C@@H]4C[C@H](OC(=O)CN)CC[C@]4(C)[C@H]3C[C@H](OC(=O)CN)[C@]12C | 16 (≈ 8.33 µg/mL) | 14 | > 50 | 14.7 | < 20 | 64 (≈ 33.3 µg/mL) | > 50 | < 20 | 
COC(=O)CC[C@@H](C)[C@H]1CC[C@H]2[C@@H]3[C@H](OC(=O)C[n+]4ccccc4)C[C@@H]4C[C@H](OC(=O)C[n+]5ccccc5)CC[C@]4(C)[C@H]3C[C@H](OC(=O)C[n+]3ccccc3)[C@]12C.[Cl-].[Cl-].[Cl-] | > 512 | > 200 | 37.5 | > 200 | > 26 | > 512 | 3.12 | > 26 | Non-toxic
COC(=O)CC[C@@H](C)[C@H]1CC[C@H]2[C@@H]3CC[C@@H]4C[C@H](OC(=O)C[N+]5(C)CCCCC5)CC[C@]4(C)[C@H]3C[C@H](OC(=O)C[N+]3(C)CCCCC3)[C@]12C | > 512 | 77 | 6.25 | 50 | > 160 | 128 | 0.78 | > 160 | 
COC(=O)CC[C@@H](C)[C@H]1CC[C@H]2[C@@H]3[C@H](OC(=O)CN)C[C@@H]4C[C@H](OC(=O)CN)CC[C@]4(C)[C@H]3CC[C@]12C | 64 (≈ 33.3 µg/mL) | 13.7 | > 50 | 14.8 | < 20 | 128 (≈ 66.7 µg/mL) | > 50 | < 20 | 
COC(=O)CC[C@@H](C)[C@H]1CC[C@H]2[C@@H]3CC[C@@H]4C[C@H](OC(=O)C[n+]5ccc(N(C)C)cc5)CC[C@]4(C)[C@H]3C[C@H](OC(=O)C[n+]3ccc(N(C)C)cc3)[C@]12C | 64 | 63 | 4.68 | 50 | > 213 | 64 | 0.78 | > 213 | 
COC(=O)CC[C@@H](C)[C@H]1CC[C@H]2[C@@H]3CC[C@@H]4C[C@H](OC(=O)C[N+](C)(C)C)CC[C@]4(C)[C@H]3CC[C@]12C | > 512 | 62 | 50 | 69 | > 20 | > 512 | 6.25 | > 20 | 
COC(=O)CC[C@@H](C)[C@H]1CC[C@H]2[C@@H]3[C@H](OC(=O)C[n+]4ccc(N(C)C)cc4)C[C@@H]4C[C@H](OC(=O)C[n+]5ccc(N(C)C)cc5)CC[C@]4(C)[C@H]3CC[C@]12C | 128 | 137 | 3.12 | 154 | > 320 | 128 | 0.78 | > 320 | 
COC(=O)CC[C@@H](C)[C@H]1CC[C@H]2[C@@H]3CC[C@@H]4C[C@H](OC(=O)CN)CC[C@]4(C)[C@H]3CC[C@]12C | > 512 | 14 | > 50 | 24.6 | < 20 | > 512 | > 50 | < 20 | 
